{"source": "patent US12637662B2", "about": "“Cells, islets, and organoids that evade immune detection and autoimmunity, methods of production and use thereof” (SALK INSTITUTE FOR BIOLOGICAL STUDIES, priority 2018, dated 2026)", "key": {"[1]": {"tested_on": "human iPSC derived cells (islet-like organoids, MCS, HILOs)", "experiment": "Glucose-stimulated insulin/c-peptide secretion assay (GSIS, ELISA)", "format": "cell-based", "settings": "3 mM vs 20 mM glucose", "procedure": "Insulin release from intact islets was monitored using batch incubation methods as reported by E. Yoshihara et al., 2016, Cell metabolism, 23:622-634. Briefly, overnight-cultured, isolated pancreatic islets (RPMI-1640 medium supplemented with 10% (v/v) fetal bovine serum and 1% (v/v) Antibiotic-Antimycotic (Gibco)) were pre-cultured at 37° C. for 30 minutes in Krebs-Ringer bicarbonate buffer (KRBB) containing 129.4 mM NaCl, 3.7 mM KCl, 2.7 mM CaCl2), 1.3 mM KH2PO4, 1.3 mM MgSO4, 24.8 mM NaHCO3 (equilibrated with 5% CO2, 95% O2, pH 7.4), 10 mM HEPES and 0.2% (v/v) BSA (fraction V, Sigma) (KRBH) with 3 mM glucose). […] After 30 minutes, the islets were pelleted by centrifugation and secreted insulin levels were determined in the medium by Enzyme Linked Immunosorbent Assay (ELISA), (Rat/mouse Insulin ELISA KIT (Millipore) and Human Insulin ELISA KIT or ultrasensitive human c-peptide ELISA Kit (Millipore) for mouse and human islets, respectively). […] After 30 minutes, the cells were pelleted by centrifugation and c-peptide levels were determined in the supernatant medium using the human c-peptide ELISA KIT (Millipore). […]\nInsulin release from intact islets was monitored using batch incubation methods (Yoshihara et al., 2010, Nat. Commun. 1:127). […] After 30 min, the cells were pelleted by centrifugation and c-peptide levels were determined by human c-peptide ELISA KIT (Millipore)."}, "INS-1 cells": {"tested_on": "INS-1 cells", "experiment": "Proinsulin-NanoLuc Gaussia luciferase insulin secretion assay in INS-1 cells", "format": "cell-based, rat", "settings": "20 mM glucose with Exendin-4", "procedure": "It was previously published that a reporter construct, in which the Gaussia luciferase is placed within the c-peptide portion of proinsulin accurately measures insulin secretion without affecting β-cell function (Burns et al., 2015, Cell metabolism, 21, 126-137). Using a lentiviral system, INS-1 cells stably expressing this Gaussia luciferase were generated. Luciferase secretion from INS-1 cells stably expressing Proinsulin-NanoLuc increased with high-glucose (20 mM), high glucose with Exendin-4 (G20 mM+Ex4), and the depolarizing agent, potassium chloride, confirming the utility of this reporter system. Next, the usefulness of this reporter to measure insulin secretion in mouse or human islets transiently infected with the Proinsulin-NanoLuc reporter was evaluated. Luciferase secretion in response to 20 mM high glucose was detected in both transiently infected mouse and human islets were detected. Importantly, the assay sensitivity was sufficient that insulin secretion could be qualified at the level of single islets. […] (See, e.g., WO 2017/205511). […]"}, "[2]": {"tested_on": "human islet-like organoids", "experiment": "Proinsulin-NanoLuc Gaussia luciferase insulin secretion assay in single or pooled islets/organoids", "format": "cell-based", "settings": "pooled organoids (10 to 100 per assay)", "excerpt": "Recent studies have reported the generation of insulin producing β-like cells from hESC and hiPSC capable of secreting insulin in response to glucose (Pagliuca et al., 2014, Cell, 159, 428-439; Rezania et al., 2014, Nature Biotechnology, 32(11):1121-33; Russ et al., 2015, FMBO Journal, 34:1759-1772). […] To date, efforts have focused on the independent generation of insulin producing β-like cells, glucagon producing α-like cells, and somatostatin producing 6-like cells from hPSC. However, these approaches lack the supporting cells important for regulation, such as mesenchymal cells, adipose cells, and vasculature cells. Since the 3D structure of islets naturally enhances their function, these missing cellular components may compromise the functionality of islet-like cells clusters. […] To test this idea, single organoid proinsulin secretion assays were performed. Human islet-like organoids generated by methods described herein are morphologically identical with human islet.\nMouse islets, human islets and human islets like organoids were plated in their respective growth media with 10 μg/ml Polybrene® polymer (Santacruz). Viruses were then added. After overnight culture, cells were placed in fresh growth media. […]"}, "[3]": {"tested_on": "PD-L1 expression in wHILOs", "experiment": "PD-L1 induction by IFNγ in wHILOs", "format": "cell-based, human", "procedure": "For acute treatment, wHILOs were treated with 10 ng/ml IFNγ in the differentiation medium (S5 with 10 μM Trolox, 2 μM R428, 1 mM N-acetyl cysteine, 10 μM Alk5 inhibitor II, 1 μM T3 and 100 ng/ml rhWnt4 (recombinant human Wnt4)) for 2 hours. Cells were then washed twice with PBS prior to culturing in differentiation medium (S5 with 10 μM Trolox, 2 μM R428, 1 mM N-acetyl cysteine, 10 μM Alk5 inhibitor II, 1 μM T3 and 100 ng/ml rhWnt4) (single pulse stimulation). IFNγ exposure was repeated 3 times with washing and 24 hours resting time in differentiation medium (S5 with 10 μM Trolox, 2 μM R428, 1 mM N-acetyl cysteine, 10 μM Alk5 inhibitor II, 1 μM T3 and 100 ng/ml rhWnt4) between each IFNγ exposure (MPS stimulation) to generate wHILO^ie. After the final IFNγ pulse, cells were cultured in the tissue culture incubator for a week prior to the RNA-seq analyses (FIGS. 14A-14C), ATAC-seq analyses (FIG. 14D) and transplantation into STZ-induced diabetic C57BL6J mice (FIG. 5J) or humanized mice (FIG. 15B).\nTotal RNA was extracted using TRIzol reagent (Invitrogen) and RNeasy KIT (Qiagen). Reverse transcription was performed with a SuperScript III First-Strand Synthesis System kit (Invitrogen) or PrimeScript RT reagent kit (TAKARA). Real time quantitative RT-PCR (qPCR) was performed using SYBR Green (Bio-Rad)."}, "[4]": {"tested_on": "PD-L1 expression in human islets", "experiment": "PD-L1 induction by IFNγ in human islets", "format": "cell-based", "settings": "12 hours after IFNγ treatment (FIG. 12F)"}, "[5]": {"tested_on": "chromatin accessibility in HILO cells", "experiment": "ATAC-Seq chromatin accessibility in HILOs", "format": "cell-based, human", "excerpt": "[…] D. Buenrostro et al., 2015, Current Protocols in Molecular Biology, 109:21-29. Reads were aligned by Bowtie to hg19, and peaks were called by HOMER using default settings. Differential peaks and motif analyses from 2 biological duplicates were identified using HOMER essentially as instructed (see, e.g., S. Heinz et al., 2010, J. Mol. Cell, 38:576-589). Detailed methods for HOMER are freely available, e.g., at http://http://homer.salk.edu/homer/. Briefly, the program searches against the target and background sequences for enrichment of known motifs, and returns motifs enriched with a threshold of 1.5-fold change and a p-value of less than 0.05. Promoter regions, defined as 1 kilobase (kB) upstream from the transcription start site, of genes with enhanced chromatin accessibility upon Wnt4 treatment, were interrogated for enriched motifs of 8-16 bp using HOMER motif analysis."}, "PD-1": {"target": "PD-1 (Homo sapiens, UniProt Q15116)", "sequence (Q15116 25-288)": "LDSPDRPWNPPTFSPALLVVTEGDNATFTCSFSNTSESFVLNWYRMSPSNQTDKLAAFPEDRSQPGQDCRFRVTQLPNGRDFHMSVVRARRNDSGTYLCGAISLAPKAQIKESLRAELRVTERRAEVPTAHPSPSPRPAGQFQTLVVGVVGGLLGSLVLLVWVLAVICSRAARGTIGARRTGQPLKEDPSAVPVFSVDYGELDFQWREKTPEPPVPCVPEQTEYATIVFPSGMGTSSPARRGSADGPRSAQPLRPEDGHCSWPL", "settings": "read-out: Kd (dissociation constant), binding to PD-1; cited from earlier work"}, "CD80 (B7-1)": {"target": "T1, CD80 (B7-1) (Homo sapiens, UniProt P33681)", "T1 sequence (P33681 35-288)": "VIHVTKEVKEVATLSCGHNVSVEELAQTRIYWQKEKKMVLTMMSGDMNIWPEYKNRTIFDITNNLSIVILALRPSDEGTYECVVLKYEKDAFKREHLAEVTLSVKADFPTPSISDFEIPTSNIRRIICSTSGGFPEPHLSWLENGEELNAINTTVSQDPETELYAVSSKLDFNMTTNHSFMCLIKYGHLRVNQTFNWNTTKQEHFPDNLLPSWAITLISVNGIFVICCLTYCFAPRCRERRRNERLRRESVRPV", "settings": "cited from earlier work"}, "CD86 (B7-2)": {"target": "T2, CD86 (B7-2) (Homo sapiens, UniProt P42081)", "T2 sequence (P42081 24-329)": "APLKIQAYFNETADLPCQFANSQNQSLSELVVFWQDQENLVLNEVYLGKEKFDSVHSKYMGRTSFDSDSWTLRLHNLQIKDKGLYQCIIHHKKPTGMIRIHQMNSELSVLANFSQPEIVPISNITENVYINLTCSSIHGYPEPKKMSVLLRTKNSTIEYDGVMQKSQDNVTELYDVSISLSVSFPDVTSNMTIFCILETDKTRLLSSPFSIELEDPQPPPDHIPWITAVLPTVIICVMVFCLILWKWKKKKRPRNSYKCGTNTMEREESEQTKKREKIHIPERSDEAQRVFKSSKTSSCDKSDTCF", "settings": "cited from earlier work"}, "[6]": {"tested_on": "human islet-like organoids", "experiment": "Amyloid polypeptide (hIAPP) toxicity in human islet-like organoids", "format": "cell-based", "settings": "24 hours", "excerpt": "The generation of functional human organs according to methods described herein provides new strategies for drug-screening and disease modeling. Specifically, functional organoids can be used as models of type 2 diabetes for drug screening."}}, "note": "“Also recorded” adds a separate entry of the source.", "data": [{"compound": "Oc1nc(-c2ccc(C(F)(F)F)cc2)nc2c1CSCC2", "note": "[XAV939, reference compound]", "values": [{"measurement": "glucose-stimulated insulin (c-peptide) secretion in vitro", "setting": "[1]", "result": "not blocked"}]}, {"compound": "Exendin-4", "values": [{"measurement": "luciferase secretion (insulin secretion reporter)", "setting": "INS-1 cells", "result": "increased"}]}, {"compound": "GLP-1: incretin used for co-stimulation of insulin secretion", "values": [{"measurement": "GSIS by proinsulin luciferase secretion assay", "setting": "[2]", "result": "enhanced GSIS"}]}, {"compound": "IFNγ: recombinant human IFNγ (R&D Systems, 285-IF) used to induce PD-L1 expression", "values": [{"measurement": "GSIS functionality after MPS IFNγ", "setting": "[1]; wHILOs", "result": "not compromised"}, {"measurement": "duration of sustained PD-L1 expression after MPS", "setting": "[3]; at least 3 pulses, 10 ng/ml, 2 hours per pulse", "result": "at least 7 days"}, {"measurement": "PD-L1 expression after repeated short IFNγ exposures (MPS) (in words)", "setting": "[3]; multiple pulse stimulation", "result": "high levels of PD-L1 protein expression; also recorded: sustained PD-L1 expression"}, {"measurement": "PD-L1 induction after single IFNγ exposure (in words)", "setting": "[3]; single / acute exposure", "result": "rapidly and robustly induced; also recorded: maximum PD-L1 induction; also recorded: transient"}, {"measurement": "increase in PD-L1 expression", "setting": "[4]", "result": "approximately 20 fold"}, {"measurement": "chromatin accessibility at PD-L1, IRF9, JUNB, JUND loci", "setting": "[5]; after MPS IFNγ treatment", "result": "persistent increases"}, {"measurement": "chromatin accessibility at IRF1, STAT1", "setting": "[5]; after acute (12 h) IFNγ treatment", "result": "not sustained"}]}, {"compound": "PD-L2: related molecule that shares PD-1 as a receptor", "values": [{"measurement": "Kd", "setting": "PD-1", "result": 140, "unit": "nM"}, {"measurement": "affinity for CD80 (in words)", "setting": "CD80 (B7-1)", "result": "does not have affinity"}, {"measurement": "affinity for CD86 (in words)", "setting": "CD86 (B7-2)", "result": "does not have affinity"}]}, {"compound": "hIAPP: amyloid polypeptide, an inducer of β cell loss in type 2 diabetic patients (KCNTATCATQRLANFLVHSSNNFGAILSSTNVGSNTY; Islet amyloid polypeptide; UniProt P10997 34-70, looked up)", "values": [{"measurement": "cell cycle arrest", "setting": "[6]", "result": "dose-dependently induced G0/G1 arrest"}]}]}
